The text below walks through data of patent publication US10899910B2, “Quaternary cationic polymers” (ECOLAB USA, INC., priority 2016, dated 2021).

Data set [1] in a line: Surface tension measurement (Tracker tensiometer). In kind it is physicochemical. The note with it: room temperature. How it is done: Surface tension measurements were conducted on a Tracker tensiometer (Teclis Instruments) at room temperature. Various concentrations of surfactant solutions were prepared and measurements were conducted.
The surface tension as a function of concentration of the cationic surfactant samples were measured and are listed in Table 2, where NT means not tested.

A short description of data set [2]: Corrosion bubble cell test (Linear Polarization Resistance). Particulars: 2 ppm with 1% 2ME synergist, 80° C. As to the method: (§1) Cationic polymer salts were evaluated for corrosion performance as compared to a C12-C18 alkyl dimethyl benzyl ammonium chloride via a bubble test procedure. The bubble test simulates low flow areas where little or no mixing of water and oil occurs. The test was conducted using brine (80% of the brine being 3% sodium chloride brine and 20% of the brine being a hydrocarbon containing 75% LVT-200 kerosene oil and 25% xylene). The brine was placed into kettles and purged with carbon dioxide. The brine was continually purged with carbon dioxide to saturate the brine prior to starting the test. After the test began, the test cell was blanketed with carbon dioxide one hour prior to electrode insertion and through the duration of the test to maintain saturation. The kettles were stirred at 150 revolutions per minute (rpm) for the duration of the test to maintain thermal equilibrium at 80° C. The corrosion rate was measured by Linear Polarization Resistance (LPR) techniques. The working electrode used was carbon steel. The counter and reference electrodes were both 1018 carbon steel. The electrodes were all cleaned and polished prior to testing. Data were collected for three hours before 20 ppm of each of the compositions (containing 2 ppm of each of various pentaquaternary cationic polymer salts or the comparative C12-C18 alkyl dimethyl benzyl ammonium chloride and 1% 2-mercaptoethanol (2ME) as synergist in an organic solvent) was dosed into its respective cell. Data were collected overnight. A low concentration of the compositions was used to differentiate between the compositions.
Corrosion bubble cell tests were performed according to the method of Example A1 to evaluate a hexaquaternary cationic polymer salt for corrosion performance as compared to a C12-C18 alkyl dimethyl benzyl ammonium chloride. Data were collected for three hours before 20 ppm of each of the compositions (containing 2 ppm of a hexaquaternary cationic polymer salt or the comparative C12-C18 alkyl dimethyl benzyl ammonium chloride and 1% 2ME as synergist in an organic solvent) was dosed into its respective cell. Data were collected overnight. A low concentration of the compositions was used to differentiate between the compositions.
as §1, with “six” for “three”, “polyethyleneimine-based” for “pentaquaternary”, “cell. However, for the comparative composition, data was only collected three hours before addition of the compositions.” for “cell.”

Data set [3] relates to collection of aerobic bacteria from 30 water samples in cooling towers across North America. In words: Biofilm reduction (biofilm inhibition test, stain absorbance at 590 nm). In kind it is cell-based. Particulars: for (Comp. - Single Quat 2)*100 / Single Quat 2: biofilm reduction relative to Single Quat 2. As to the method:
Biofilm reduction experiments were conducted to test the efficacy of multi-quaternary cationic polymers compared to single quaternary compounds. Two different compositions were prepared containing single quaternary compounds: a composition (Single Quat 1) comprising about 50% by weight bisoctyl dimethyl ammonium chloride (CAS #5538-94-3) and about 5-10% by weight glycerin; and a composition (Single Quat 2) comprising about 50% by weight didecyl-dimethyl ammonium chloride (CAS #7173-51-5) and about 10-30% by weight ethanol. The test bacteria comprised a collection of aerobic bacteria from 30 water samples in cooling towers across North America. Different concentrations of cationic polymer salts and single quaternary compounds were tested ranging from about 0.8 ppm to about 1000 ppm. Using the biofilm inhibition test protocols, the absorbed stains were extracted and absorbance was measured at 590 nm. The biofilm reduction was calculated by comparing the absorbance of treated vs untreated controls, then averaged over six replicates.

Setting [4] is: CO2-saturated brine/hydrocarbon, three hours baseline (Tables 8, 9).

On to `CCCCCCCCCCCCCCCCCC[N+](C)(C)CC(O)CN(CCN(CCN(CC(O)C[N+](C)(C)C)CC(O)C[N+](C)(C)C)CC(O)C[N+](C)(C)C)CC(O)C[N+](C)(C)C.[Cl-].[Cl-].[Cl-].[Cl-].[Cl-]` (stereo not drawn) [Compound 7], for which the Surface tension in data set [1] (concentration 0.010 %) was determined as 73.70 mN/m; in data set [1] (concentration 0.025 %), 72.05 mN/m; in data set [1] (concentration 0.050 %) it was 64.84 mN/m; in data set [1] (concentration 0.100 %) it was 60.93 mN/m; in data set [1] (concentration 0.200 %), 57.12 mN/m; in data set [1] (concentration 0.500 %) it was 55.13 mN/m. Further, the “% Protection” value in data set [2] (setting [4]) turned out to be 64%. The Biofilm reduction in data set [3] (active conc. 0.8 ppm) is 22.9%; in data set [3] (active conc. 1.6 ppm) it was 12.7%; in data set [3] (active conc. 3.0 ppm) it was 46.7%; in data set [3] (active conc. 6.0 ppm), 23.5%; in data set [3] (active conc. 8.0 ppm), 54.9%; in data set [3] (active conc. 12.0 ppm), 65.1%. In addition, the Biofilm reduction in data set [3] (active conc. 16.0 ppm) was 90.6%; in data set [3] (active conc. 25.0 ppm), 90.6%; in data set [3] (active conc. 31.0 ppm), 94.7%; in data set [3] (active conc. 50.0 ppm) it was 93.0%; in data set [3] (active conc. 62.0 ppm) it was 96.6%; in data set [3] (active conc. 100.0 ppm), 79.3%. The Biofilm reduction is 96.6% in data set [3] (active conc. 125.0 ppm), 97.1% in data set [3] (active conc. 250.0 ppm), 97.8% in data set [3] (active conc. 500.0 ppm) and 98.4% in data set [3] (active conc. 1000.0 ppm). The “(Comp. - Single Quat 2)*100 / Single Quat 2” value in data set [3] (active conc. 0.8 ppm) is recorded as 106.8%; in data set [3] (active conc. 1.6 ppm), 321.3%; in data set [3] (active conc. 3.0 ppm), 35.5%; in data set [3] (active conc. 6.0 ppm), 195.0%; in data set [3] (active conc. 8.0 ppm) it was −20.8%; in data set [3] (active conc. 12.0 ppm), 24.2%. Besides, the “(Comp. - Single Quat 2)*100 / Single Quat 2” value in data set [3] (active conc. 16.0 ppm) was 10.9%; in data set [3] (active conc. 25.0 ppm) it was 12.9%; in data set [3] (active conc. 31.0 ppm) it was 16.0%; in data set [3] (active conc. 50.0 ppm), 15.7%; in data set [3] (active conc. 62.0 ppm), 47.6%; in data set [3] (active conc. 100.0 ppm), 608.5%. Moreover, the “(Comp. - Single Quat 2)*100 / Single Quat 2” value in data set [3] (active conc. 125.0 ppm) is reported as 1517.3%; in data set [3] (active conc. 250.0 ppm) it was 15.3%; in data set [3] (active conc. 500.0 ppm), 6.3%; in data set [3] (active conc. 1000.0 ppm), 63.7%. Also, in data set [3] (at concentrations as low as about 12 ppm), the “biofilm reduction compared with the Single Quat 2 composition” value is “reduced biofilms to a greater extent than the Single Quat 2 composition”.

Consider `CCCCCCCCCCCCCCCCCC[N+](C)(C)CC(O)CN(CCN(CCN(CC(O)C[N+](C)(C)CCCCCCCCCCCCCCCCCC)CC(O)C[N+](C)(C)CCCCCCCCCCCCCCCCCC)CC(O)C[N+](C)(C)C)CC(O)C[N+](C)(C)C.[Cl-].[Cl-].[Cl-].[Cl-].[Cl-]` (stereo not drawn) [Compound 10], for which the Surface tension is reported as 70.99 mN/m in data set [1] (concentration 0.010 %); 61.99 mN/m in data set [1] (concentration 0.025 %); 57.33 mN/m in data set [1] (concentration 0.050 %); 52.64 mN/m in data set [1] (concentration 0.100 %); 50.58 mN/m in data set [1] (concentration 0.200 %); 47.92 mN/m in data set [1] (concentration 0.500 %). The compound also came in with a Surface tension in data set [1] (concentration 1.000 %) of 47.48 mN/m.

On to `CCCCCCCCCCCCCCCCCC[N+](C)(C)CC(O)CN(CCN(CCN(CC(O)C[N+](C)(C)CCCCCCCCCCCCCCCCCC)CC(O)C[N+](C)(C)CCCCCCCCCCCCCCCCCC)CC(O)C[N+](C)(C)C)CC(O)C[N+](C)(C)CCCCCCCCCCCCCCCCCC.[Cl-].[Cl-].[Cl-].[Cl-].[Cl-]` (stereo not drawn) [Compound 11], for which the Surface tension in data set [1] (concentration 0.010 %) is given as 63.52 mN/m; in data set [1] (concentration 0.025 %), 60.01 mN/m; in data set [1] (concentration 0.050 %) it was 56.35 mN/m; in data set [1] (concentration 0.100 %), 53.23 mN/m; in data set [1] (concentration 0.200 %), 50.16 mN/m; in data set [1] (concentration 0.500 %), 47.38 mN/m. In data set [1] (concentration 1.000 %), this compound showed a Surface tension of 46.58 mN/m. Besides, the “% Protection” value in data set [2] (setting [4]) is reported as 76%.

`CCCCCCCCCCCCCCCCCC[N+](C)(C)CC(O)CN(CCN(CC(O)C[N+](C)(C)CCCCCCCCCCCCCCCCCC)CC(O)C[N+](C)(C)CCCCCCCCCCCCCCCCCC)CCN(CC(O)C[N+](C)(C)CCCCCCCCCCCCCCCCCC)CC(O)C[N+](C)(C)CCCCCCCCCCCCCCCCCC.[Cl-].[Cl-].[Cl-].[Cl-].[Cl-]` (stereo not drawn) [Compound 12]: the Surface tension in data set [1] (concentration 0.010 %) is given as 63.16 mN/m; in data set [1] (concentration 0.025 %) it was 55.77 mN/m; in data set [1] (concentration 0.050 %), 51.89 mN/m; in data set [1] (concentration 0.100 %), 49.42 mN/m; in data set [1] (concentration 0.200 %), 47.02 mN/m; in data set [1] (concentration 0.500 %), 45.02 mN/m. Besides, the figures for the Surface tension in data set [1] (concentration 1.000 %), in data set [1] (concentration 1.500 %) and in data set [1] (concentration 2.000 %) were 44.22 mN/m, 43.46 mN/m and 42.97 mN/m, respectively. The “% Protection” value in data set [2] (setting [4]) was 55%.

Take `CCCCCCCCCCCCCCCCCC[N+](C)(C)CC(O)CN(CCN(CCN(CC(O)C[N+](C)(C)CCCCCCCCCCCCCCCCCC)CC(O)C[N+](C)(C)CCCCCCCCCCCCCCCCCC)CC(O)C[N+](C)(C)CCCCCCCCCCCCCCCCCC)CCN(CC(O)C[N+](C)(C)CCCCCCCCCCCCCCCCCC)CC(O)C[N+](C)(C)CCCCCCCCCCCCCCCCCC.[Cl-].[Cl-].[Cl-].[Cl-].[Cl-].[Cl-]` (stereo not drawn) [Compound 13]: the Surface tension is on record as 63.28 mN/m in data set [1] (concentration 0.010 %); 59.04 mN/m in data set [1] (concentration 0.025 %); 55.36 mN/m in data set [1] (concentration 0.050 %); 52.65 mN/m in data set [1] (concentration 0.100 %); 50.31 mN/m in data set [1] (concentration 0.200 %); 48.02 mN/m in data set [1] (concentration 0.500 %). In data set [1] (concentration 1.000 %), this compound came in with a Surface tension of 47.78 mN/m. The “% Protection” value in data set [2] (setting [4]) was determined as 52%.

On to “C12-C18 alkyl dimethyl benzyl ammonium chloride [reference compound]”, for which the “% Protection” value in data set [2] (six hours baseline (comparative: three hours) (Table 10)) and in data set [2] (setting [4]) was 38% throughout.
